Test system: Aβ-induced toxicity
Test: Aβ-induced toxicity, neuroprotection by Aβ-interferer (FIG. 6)
Assay type: cell-based
Conditions: Aβ: laminin molar ratio of 1:10^−3; internal positive control

Substance: laminin
- Aβ-induced toxicity: neuroprotective

Reference: patent publication US20020022657A1, “Methods for modulating neuronal cell death” (priority 1998, published 2002)
